This note sets out measurements from patent US8829004B2, “Method for inducing tumor apoptosis by increasing nitric oxide levels” (Universitätsklinikum Freiburg, priority 2006, dated 2014).

One series relates to SISO cells. The experiment in a line: Timed inhibitor addition on inducer-mediated apoptosis in SISO cells, 96 well (Examples 5, 6). Format: cell-based, human. As for the experimental part:
FIG. 9 discloses experimental data obtained with 12500 SISO cells in 96 well tissue culture clusters in the presence of 20 ng/ml TGF and the indicated concentrations of taxol. Furthermore, histidine was added at different time points in the experiment.
FIG. 11 refers to a similar experiment as described with respect to FIG. 8 or 9, whereas histidine/L-NAME was substituted by taurine (50 mM, scavenger of HOCl).
(§1) The effect of a singlet oxygen scavenger, a NO synthase inhibitor and a HOCl scavenger on either the destruction of the catalase or the HOCl pathway was determined by the following experiment. 12500 SISO cells in 100 μl media in 96 tissue wells were treated with taxol (20 μg/ml) in the presence of TGF-β (20 ng/ml). In addition, the singlet oxygen scavenger, the NO synthase inhibitor or the HOCl scavenger was added at different points of time in the experiments.
The concentrations of taxol, histidine, L-NAME and taurine were the same as in the experiments 5a-5c. 3-Br-7-Nitroindazole was added at a concentration of 10 μm. The apoptosis inducing compounds were added at increasing concentrations (0-5 mM arginine, 0-20 μg/ml taxol, 0-20 μg/ml artemisine, 0-20 μg/ml xanthohumol, 0-20 μg/ml itraconazole, 0-10 μg/ml miconazole, 0-20 μg/ml antibody against Apo/FAS receptor).

Series [1] concerns SISO cells (human cervix carcinoma). The experiment in a line: Apoptosis induction by taxol in SISO cells, 48 well (FIGS. 6-8, Example 4). The format is cell-based. Conditions: for synergistic effect with taxol on apoptosis: 10 mM arginine, 200 μM Nor-NOHA or both, suboptimal taxol, 20 ng/ml TGF. On the procedure: FIG. 6 discloses experimental data obtained with 25000 SISO cells (human cervix carcinoma) cultured in 48 well tissue culture clusters in the presence of the indicated concentrations of the established chemotherapeutic compound taxol. The assays contained 2 mM Histidine or not.
FIG. 7 discloses experimental data obtained with 25000 SISO cells (human cervix carcinoma) cultured in 48 well tissue culture clusters either in the absence of any inducer (“no addition”) or in the presence of 10 μg/ml taxol (“TAX”) without further additions or with the addition of 100 μM of the NADPH oxidase inhibitor AEBSF, 100 U/ml of the superoxide anion scavenger SOD (Manganese-containing SOD from E. coli), 100 U/ml catalase, 150 μM of the peroxidase inhibitor ABH (aminobenzoylhydrazide), 50 mM of the HOCl scavenger taurine, 1 mM of the hydroxyl radical scavenger mannitol, 2.4 mM of the NO synthase inhibitor L-NAME, and 25 μM of the inhibitors for caspase 3, −9 and 8.
FIG. 8 discloses experimental data obtained with 25 000 SISO cells in 48 well tissue culture clusters in the presence of 20 ng/ml TGF and the indicated concentrations of taxol. Where indicated, taxol containing assays received 10 mM arginine (10 ARG), 200 μM Nor-NOHA or a combination of both.
Human SISO cells are used in a 48-well plate (Costar) in 200 μl media with a cell concentration of 25,000. The media comprises 20 ng/ml TGF-beta and furthermore Taxol subjected for testing in a concentration ranging from 1.25-20 ng/ml. For comparison, control experiments are performed without Taxol which is tested for apoptosis induction.
Step 2 is carried out with the same conditions as specified for step 1, whereas all cells are contacted with taxol. In addition, histidine (2 mM) is added to the cells, whereas also experiments without histidine are performed as control experiments.
In a further experiment using the conditions of step 1, human tumor cells (SISO) are contacted with taxol (10 μg/ml) and 100 μM of the NADPH oxidase inhibitor AEBSF, 100 U/ml of the superoxide anion scavenger SOD (Manganese-containing SOD from E. coli), 100 U/ml catalase, 150 μM of the peroxidase inhibitor ABH (aminobenzoylhydrazide), 50 mM of the HOCl scavenger taurine, 1 mM of the hydroxyl radical scavenger mannitol or 2.4 mM of the NO synthase inhibitor L-NAME.

Another series concerns SHEP. The series can be described thus: Inhibitor effect on inducer-mediated apoptosis, SHEP cells (Example 6). The format is cell-based, human. On the procedure:
as §1
(§2) Further experiments have been carried out using different types of cells and different apoptosis inhibitors. The experimental setup was analogue to the examples 5a-5c and the late addition of the inhibitor (histidine, L-NAME, 3-Br-7-Nitroindazole or taurine) was performed 1 hour after beginning of the experiment. The concentrations of taxol, histidine, L-NAME and taurine were the same as in the experiments 5a-5c. 3-Br-7-Nitroindazole was added at a concentration of 10 μm. The apoptosis inducing compounds were added at increasing concentrations (0-5 mM arginine, 0-20 μg/ml taxol, 0-20 μg/ml artemisine, 0-20 μg/ml xanthohumol, 0-20 μg/ml itraconazole, 0-10 μg/ml miconazole, 0-20 μg/ml antibody against Apo/FAS receptor). In each of the experiments, the effect of the inhibitors on the singlet oxygen mediated catalase destruction and/or the subsequent ROS signaling could be observed. […]

Series [2] deals with normal diploid fibroblasts. The experiment in a line: Toxicity test on normal diploid fibroblasts (step 3). Format: cell-based. Conditions: conditions of step 1, two days; data not shown. As for the experimental part:
The method for identifying suitable compounds can additionally comprise a third step. The third step comprises contacting the identified compounds from step 2 with normal diploid fibroblasts in order to determine whether these compounds induce apoptosis or other toxic reactions and are therefore not suitable for a medical use.
The experimental conditions are the same as for step 1, whereas the cells used for step 3 are normal diploid fibroblasts. Control experiments are carried out without the test compound, and the cells are incubated for two days.

Series [3] relates to SISO cells (human cervix carcinoma). The experiment in a line: Apoptosis induction by taxol in SISO cells, 48 well (FIGS. 6-8, Example 4). The format is cell-based.
A further series concerns Gumbus. The experiment in a line: Inhibitor effect on inducer-mediated apoptosis, Gumbus cells (Example 6). Format: cell-based. On the procedure: as §1
(§3) Further experiments have been carried out using different types of cells and different apoptosis inhibitors. The experimental setup was analogue to the examples 5a-5c and the late addition of the inhibitor (histidine, L-NAME, 3-Br-7-Nitroindazole or taurine) was performed 1 hour after beginning of the experiment. The concentrations of taxol, histidine, L-NAME and taurine were the same as in the experiments 5a-5c. 3-Br-7-Nitroindazole was added at a concentration of 10 μm. The apoptosis inducing compounds were added at increasing concentrations (0-5 mM arginine, 0-20 μg/ml taxol, 0-20 μg/ml artemisine, 0-20 μg/ml xanthohumol, 0-20 μg/ml itraconazole, 0-10 μg/ml miconazole, 0-20 μg/ml antibody against Apo/FAS receptor). In each of the experiments, the effect of the inhibitors on the singlet oxygen mediated catalase destruction and/or the subsequent ROS signaling could be observed. […] Addition of histidine at the beginning of the experiment caused inhibition in all experiments and for all cell lines shown. […] The experiments using neuroblastoma cells only display apoptosis mediated by the NO pathway as these cells only release small amounts of peroxidase. Therefore, addition of the nNOS-specific inhibitor 3-Br-7NI caused inhibition of apoptosis, irrespective of the time of addition. […] Addition of taurine in the presence of higher concentrations of inducers inhibited apoptosis irrespective of the time of addition (zero versus one hour), as HOCl is only involved in intercellular signaling, but not in catalase destruction.

A further series relates to SKNMC. The series can be described thus: Inhibitor effect on inducer-mediated apoptosis, SKNMC cells (Example 6). The format is cell-based, human. On the procedure: as §1, §2
The test system of another series is MKN-45. The experiment in a line: Inhibitor effect on inducer-mediated apoptosis, MKN-45 cells (Example 6). The format is cell-based. On the procedure:
as §1, §3

The mark [4] stands for this setting: SISO, inducer at increasing concentrations.

Take `CC(=O)O[C@H]1C(=O)[C@@]2(C)[C@H]([C@H](OC(=O)c3ccccc3)[C@]3(O)C[C@H](OC(=O)[C@H](O)[C@@H](NC(=O)c4ccccc4)c4ccccc4)C(C)=C1C3(C)C)[C@]1(OC(C)=O)CO[C@@H]1C[C@@H]2O` [Taxol]: in the series on SISO cells (2 mM histidine at start), the “effect of histidine added at the beginning on taxol-induced apoptosis” value was “inhibits the tumor apoptosis to a great extend”. In addition, the “effect of late addition of L-NAME on taxol-induced apoptosis” value with SISO cells (2.4 mM L-NAME 5 hours after beginning) is given as “only shows some inhibition at low taxol concentrations”. For the same compound, the “effect of early addition of L-NAME on taxol-induced apoptosis” value with SISO cells (2.4 mM L-NAME at start) is reported as “inhibits tumor apoptosis”. Moreover, the “effect of taurine on taxol-induced apoptosis” value in the series with SISO cells (50 mM taurine at start or after 5 hours) was “only inhibits tumor apoptosis at high taxol concentrations”. Also, in the series with SISO cells (setting [4]), the “apoptosis inhibitory effect of Histidine” value is given as “+”, the “apoptosis inhibitory effect of L-NAME” value is recorded as “+” and the “apoptosis inhibitory effect of Taurine” value is on record as “+”. Also, in the series on SISO cells (histidine 5 hours after beginning), the “effect of late addition of histidine on taxol-induced apoptosis” value is on record as “only shows a small effect of apoptosis inhibition”. The “effect of histidine on taxol-induced apoptosis” value in series [1] (2 mM histidine) was “inhibited by histidine at all concentrations”. The apoptosis induction entry in series [1] (Taxol 1.25-20 ng/ml, 20 ng/ml TGF-beta) is “apoptosis already occurs after 12.5 hours at all concentrations”. The “caspase dependence of apoptosis induction” value in series [1] (taxol 10 μg/ml, 25 μM inhibitors for caspase 3, -9 and 8) is “mediated by caspases 9 and 3 (mitochondrial pathway) and is independent of the death receptor specific caspase 8”. The “effect of inhibitors of superoxide anion generation (AEBSF, SOD) on taxol-mediated apoptosis” value in series [1] (taxol 10 μg/ml, 100 μM AEBSF, 100 U/ml SOD) is recorded as “inhibited”. Besides, the “effect of inhibitor of the NO pathway (L-NAME) on taxol-mediated apoptosis” value in series [1] (taxol 10 μg/ml, 2.4 mM L-NAME) was “not by the inhibitor of the NO pathway”. Besides, the “effect of inhibitors of the HOCl pathway (catalase, ABH, taurine, mannitol) on taxol-mediated apoptosis” value in series [1] (taxol 10 μg/ml, 100 U/ml catalase, 150 μM ABH, 50 mM taurine, 1 mM mannitol) was “inhibited”. Further, in the series with SHEP, the “apoptosis inhibitory effect of Histidine” value was “+”. Moreover, the “apoptosis inhibitory effect of 3-Br-7-NI” value in the series on SHEP (3-Br-7-Nitroindazole 10 μm) was “+”. The “apoptosis induction in diploid fibroblasts” value in series [2] is “did not induce significant apoptosis”. Also, in series [3] (2 μg/ml taxol, data not shown), the “signaling pathway used at low taxol concentration” value is “the NO pathway became more prominent”. Besides, the “apoptosis induction in SISO cells with siRNA knockdown of superoxide anion generation” value in series [3] (siRNA-based genetic knockdown) is recorded as “did not lead to taxol-mediated apoptosis induction”. Further, in the series with Gumbus, the “apoptosis inhibitory effect of Histidine” value is listed as “+”, the “apoptosis inhibitory effect of L-NAME” value was “+” and the “apoptosis inhibitory effect of Taurine” value was “+”.

With `N=C(NO)NCC[C@H](N)C(=O)O` [Nor-NOHA, N^omega-hydroxy-nor-L-arginine], in series [1], the “synergistic effect with taxol on apoptosis” value is on record as “synergistic effect”.

Turning to `CCC(C)n1ncn(-c2ccc(N3CCN(c4ccc(OCC5COC(Cn6cncn6)(c6ccc(Cl)cc6Cl)O5)cc4)CC3)cc2)c1=O` (centres unmarked) [Itraconazole], in the series on Gumbus, the “apoptosis inhibitory effect of Histidine” value was “+”, the “apoptosis inhibitory effect of L-NAME” value is reported as “+” and the “apoptosis inhibitory effect of Taurine” value is “+”.

For `COc1cc(O)c(CC=C(C)C)c(O)c1C(=O)/C=C/c1ccc(O)cc1` [Xanthohumol], in the series on Gumbus, the “apoptosis inhibitory effect of Histidine” value is reported as “+”, the “apoptosis inhibitory effect of L-NAME” value is listed as “+” and the “apoptosis inhibitory effect of Taurine” value is “+”.

As to `Clc1ccc(COC(Cn2ccnc2)c2ccc(Cl)cc2Cl)c(Cl)c1` (centres unmarked) [Miconazole], in the series with Gumbus, the “apoptosis inhibitory effect of Histidine” value is listed as “+”, the “apoptosis inhibitory effect of L-NAME” value was “+” and the “apoptosis inhibitory effect of Taurine” value is recorded as “+”.

In the case of `N=C(N)NCCC[C@H](N)C(=O)O` [Arginine], the “synergistic effect with taxol on apoptosis” value in series [1] is “synergistic effect”. In the series with Gumbus, the “apoptosis inhibitory effect of Histidine” value is listed as “+”, the “apoptosis inhibitory effect of L-NAME” value was “+” and the “apoptosis inhibitory effect of Taurine” value is “+”. For the same compound, in the series with SKNMC, the “apoptosis inhibitory effect of Histidine” value is “+”. Moreover, in the series on SKNMC (3-Br-7-Nitroindazole 10 μm), the “apoptosis inhibitory effect of 3-Br-7-NI” value is listed as “+”.

Consider `C[C@@H]1CC[C@H]2[C@@H](C)C(=O)O[C@@H]3O[C@@]4(C)CC[C@@H]1[C@]32OO4` [Artemisinine], for which, in the series on MKN-45, the “apoptosis inhibitory effect of Histidine” value is reported as “+”, the “apoptosis inhibitory effect of L-NAME” value is “+” and the “apoptosis inhibitory effect of Taurine” value is given as “+”.
